Like-named read-outs stand apart in the source and are kept apart here.
Legend:
platelet = test: Test Method B: inhibition of platelet aggregation in platelet rich plasma; format: cell-based; conditions: Oryctolagus cuniculus, rabbit PRP, 37° C.
Method: Platelet rich plasma (PRP) which contains 6.5-7.5×10^8 platelet/ml was prepared from rabbit blood. To the 200 ul of PRP, 5 μl of calcium chloride (1 mM) and 50 μl of pH 7.4 Tris-acetate solution (5 mM) containing 120 mM NaCl and test compound were added successively, and then stirred for 2 min. at 37° C. To the solution, 5 μl of adenosine diphosphate (ADP) (2.5 μM) or collagen (2.5 ug/ml) was added as an aggregation inducer. Aggregation was measured by using an aggregometer (NKK HEMA TRACER 1).

blood pressure = test: Test method A: antihypertensive activity, oral, in uninephrectomized DOCA/saline rats; format: in vivo, rat (Wister); conditions: orally, DOCA rats, mean arterial pressure
Method: Five-week old male Wister rats were uninephrectomized under anesthesia. Deoxycorticosterone […] (DOCA) (30 mg/kg), suspended in peanut oil, was injected subcutaneously twice a week and 1% saline was substituted for the drinking water. Animals with mean blood pressure 150-200 mmHg were used for experiment between 5 and 7 weeks after surgery.
The test compounds were administered orally.
Blood pressure was measured at the femoral artery by means of a pressure transducer and recorded as electrically integrated values of mean arterial pressure.
a: The test compound were administered orally in a dose of 1 mg/kg.
b: The test compound were administered orally in dose of 0.1 mg/kg.

ethanol ulcer = test: Test methods C: ethanol ulcer (antiulcer activity); format: in vivo, rat (Sprague-Dawley); conditions: 32 mg/kg orally, 30 minutes before absolute ethanol (5 ml/kg)
Method: Five male Sprague-Dawley rats, aged 7 weeks and weighing about 200 g, were used per group for the study on ethanol ulcer after the fast for 24 hours.
Test compound was suspended in 0.1% methylcellulose aqueous solution, and the suspension (5 ml/kg) was orally given to each rat.
The control group was given a vehicle, i.e. 0.1% methylcellulose aqueous solution (5 ml/kg), alone in the same way.
Absolute ethanol (5 ml/kg) was orally administered 30 minutes after dosing with test compound, and one hour later, the rats were sacrificed and their stomachs were removed. The area of ulcers of each rat was measured. The mean area (mm^2) in the medicated group was compared with that in the control group.

[1] = ADP (2.5 μM) as aggregation inducer, read-out: ID50 ADP (platelet aggregation)
[2] = collagen (2.5 ug/ml) as aggregation inducer, read-out: ID50 Collagen (platelet aggregation)

SMILES	IC50 (platelet; [1]) [nM]	IC50 (platelet; [2]) [nM]	Effect Max (mean ratio of maximum decrease of blood pressure) (blood pressure; dose a: 1 mg/kg) [%]	Effect Max (mean ratio of maximum decrease of blood pressure) (blood pressure; dose b: 0.1 mg/kg) [%]	Effect (mean ulcer area compared with control group) (ethanol ulcer) [%]
CC(=O)Nc1ccc(C2=NNC(=O)NC2C)cc1 (stereo not shown) [Example 1-(3), 6-(4-acetamidophenyl)-5-methyl-4,5-dihydro-1,2,4-triazin-3(2H)-one]	620	220	48.9	19.2	–
CC(=O)Nc1ccc(C2=NNC(=S)NC2C)cc1 (stereo not shown) [Example 23-(3), 6-(4-acetamidophenyl)-5-methyl-4,5-dihydro-1,2,4-triazin-3(2H)-thione]	–	–	–	–	87.0

Further lines, with some results ahead:

IC50 (platelet; [1]) [nM]	IC50 (platelet; [2]) [nM]	SMILES	Effect Max (mean ratio of maximum decrease of blood pressure) (blood pressure; dose a: 1 mg/kg) [%]	Effect Max (mean ratio of maximum decrease of blood pressure) (blood pressure; dose b: 0.1 mg/kg) [%]	Effect (mean ulcer area compared with control group) (ethanol ulcer) [%]
740	410	CNC(=O)Nc1ccc(C2=NNC(=O)NC2C)cc1 (stereo not shown) [Example 6, 6-[4-(3-methylureido)phenyl]-5-methyl-4,5-dihydro-1,2,4-triazin-3(2H)-one]	43.1	6.6	–
380	69	CCOC(=O)Nc1ccc(C2=NNC(=O)NC2C)cc1 (stereo not shown) [Example 24-(4), 6-(4-Ethoxycarbonylaminophenyl)-5-methyl-4,5-dihydro-1,2,4-triazin-3(2H)-one]	54.5	28.6	–
34	3.1	CC1NC(=O)NN=C1c1ccc(NC(=O)C2CC2)cc1 (stereo not shown) [Example 24-(10), 6-(4-Cyclopropanecarbonylaminophenyl)-5-methyl-4,5-dihydro-1,2,4-triazin-3(2H)-one]	–	41.1	–
